Results as given in ChEMBL document CHEMBL1201862, “PubChem BioAssay data set” (2004).
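Grown in 96-well plates, cells were treated for 48 hours with each compound at five concentrations. Insufficient inhibition: endpoint recorded as highest concentration tested. Here, GI50 denotes the concentration required for 50% inhibition of growth.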 Activity calls are given as the source filed them. No stated cut-off is given here; in the data, active = GI50 up to about 1.1 µM and inactive = higher.

Experiments:
Assay in all cases: NCI-60 cell line screen, 48 h
PC-3 = test system: PC-3
DU-145 = test system: DU-145
T47D = test system: T47D
HCT-15 = test system: HCT-15
HCC 2998 = test system: HCC 2998
SK-MEL-2 = test system: SK-MEL-2
SK-OV-3 = test system: SK-OV-3
SK-MEL-5 = test system: SK-MEL-5
RXF 393 = test system: RXF 393
UACC-257 = test system: UACC-257
Malme-3M = test system: Malme-3M
CCRF-CEM = test system: CCRF-CEM
OVCAR-8 = test system: OVCAR-8
OVCAR-5 = test system: OVCAR-5
U-251 = test system: U-251
NCI-H522 = test system: NCI-H522
TK-10 = test system: TK-10
SF-539 = test system: SF-539
MDA-MB-231 = test system: MDA-MB-231
MDA-MB-435 = test system: MDA-MB-435
K562 = test system: K562
ACHN = test system: ACHN
EKVX = test system: EKVX
UO-31 = test system: UO-31
RPMI-8226 = test system: RPMI-8226
COLO 205 = test system: COLO 205
SW-620 = test system: SW-620
A498 = test system: A498
786-0 = test system: 786-0
NCI-H460 = test system: NCI-H460
UACC-62 = test system: UACC-62
HOP-62 = test system: HOP-62
NCI/ADR-RES = test system: NCI/ADR-RES
MOLT-4 = test system: MOLT-4
LOX IMVI = test system: LOX IMVI
NCI-H23 = test system: NCI-H23
OVCAR-4 = test system: OVCAR-4
IGROV-1 = test system: IGROV-1
SR = test system: SR
SF-295 = test system: SF-295
HCT-116 = test system: HCT-116
CAKI-1 = test system: CAKI-1
Hs-578T = test system: Hs-578T
OVCAR-3 = test system: OVCAR-3
SK-MEL-28 = test system: SK-MEL-28
SN12C = test system: SN12C
HT-29 = test system: HT-29
HL-60 = test system: HL-60
NCI-H226 = test system: NCI-H226
MCF7 = test system: MCF7
M14 = test system: M14
MDA-N = test system: MDA-N
SNB-75 = test system: SNB-75
SNB-19 = test system: SNB-19
KM12 = test system: KM12
SF-268 = test system: SF-268
A549 = test system: A549
HOP-92 = test system: HOP-92

O=C(CC(O)(C(F)(F)F)C(F)(F)F)C(CCCl)C(O)(C(F)(F)F)C(F)(F)F (stereo unspecified)
GI50 (PC-3): 15.5 µM (inactive) | GI50 (DU-145): 39.7 µM (inactive) | GI50 (T47D): 26 µM (inactive) | GI50 (HCT-15): 34.3 µM | GI50 (HCC 2998): 43.8 µM (inactive) | GI50 (SK-MEL-2): 36.2 µM (inactive) | GI50 (SK-OV-3): 45.6 µM (inactive) | GI50 (SK-MEL-5): 23.2 µM (inactive) | GI50 (RXF 393): 21.1 µM (inactive) | GI50 (UACC-257): 30.8 µM (inactive) | GI50 (Malme-3M): 24.7 µM (inactive) | GI50 (CCRF-CEM): 39.9 µM (inactive) | GI50 (OVCAR-8): 27.9 µM (inactive) | GI50 (OVCAR-5): 44.2 µM (inactive) | GI50 (U-251): 35.6 µM (inactive) | GI50 (NCI-H522): 34.4 µM (inactive) | GI50 (TK-10): 55.7 µM (inactive) | GI50 (SF-539): 54.8 µM (inactive) | GI50 (MDA-MB-231): 65 µM (inactive) | GI50 (MDA-MB-435): 62.7 µM (inactive) | GI50 (K562): 39.7 µM (inactive) | GI50 (ACHN): 30.5 µM (inactive) | GI50 (EKVX): 34.7 µM (inactive) | GI50 (UO-31): 28.2 µM (inactive) | GI50 (RPMI-8226): 16.7 µM (inactive) | GI50 (COLO 205): 13.8 µM (inactive) | GI50 (SW-620): 51.6 µM (inactive) | GI50 (A498): 25.4 µM (inactive) | GI50 (786-0): 32.7 µM (inactive) | GI50 (NCI-H460): 15 µM (inactive) | GI50 (UACC-62): 53.2 µM (inactive) | GI50 (HOP-62): 33.3 µM (inactive) | GI50 (NCI/ADR-RES): 9.89 µM (inactive) | GI50 (MOLT-4): 71.9 µM (inactive) | GI50 (LOX IMVI): 55.7 µM (inactive) | GI50 (NCI-H23): 33.2 µM (inactive) | GI50 (OVCAR-4): 49.2 µM (inactive) | GI50 (IGROV-1): 52.5 µM (inactive) | GI50 (SR): 27.3 µM (inactive) | GI50 (SF-295): 33.5 µM (inactive) | GI50 (HCT-116): 26.7 µM (inactive) | GI50 (CAKI-1): 31.5 µM (inactive) | GI50 (Hs-578T): 67.6 µM (inactive) | GI50 (OVCAR-3): 11.5 µM (inactive) | GI50 (SK-MEL-28): 57.3 µM (inactive) | GI50 (SN12C): 18.9 µM (inactive) | GI50 (HT-29): 23.8 µM (inactive) | GI50 (HL-60): 16.6 µM (inactive) | GI50 (NCI-H226): 23.5 µM (inactive) | GI50 (MCF7): 85.1 µM (inactive) | GI50 (M14): 40.6 µM (inactive) | GI50 (MDA-N): > 100 µM (inactive) | GI50 (SNB-75): 24.9 µM (inactive) | GI50 (SNB-19): 34.5 µM (inactive) | GI50 (KM12): 42.3 µM (inactive) | GI50 (SF-268): 30.7 µM (inactive) | GI50 (A549): 35.6 µM (inactive)

CC1(C)C(CCO)CC1n1cc(I)c(=O)[nH]c1=O (stereo unspecified)
GI50 (PC-3): > 100 µM (inactive) | GI50 (DU-145): > 100 µM (inactive) | GI50 (T47D): > 100 µM (inactive) | GI50 (HCT-15): > 100 µM | GI50 (HCC 2998): > 100 µM (inactive) | GI50 (SK-MEL-2): > 100 µM (inactive) | GI50 (SK-OV-3): > 100 µM (inactive) | GI50 (SK-MEL-5): > 100 µM (inactive) | GI50 (RXF 393): > 100 µM (inactive) | GI50 (UACC-257): > 100 µM (inactive) | GI50 (CCRF-CEM): > 100 µM (inactive) | GI50 (OVCAR-5): > 100 µM (inactive) | GI50 (U-251): 75.3 µM (inactive) | GI50 (TK-10): > 100 µM (inactive) | GI50 (SF-539): > 100 µM (inactive) | GI50 (MDA-MB-231): 86.3 µM (inactive) | GI50 (MDA-MB-435): > 100 µM (inactive) | GI50 (K562): > 100 µM (inactive) | GI50 (ACHN): > 100 µM (inactive) | GI50 (EKVX): > 100 µM (inactive) | GI50 (UO-31): > 100 µM (inactive) | GI50 (RPMI-8226): > 100 µM (inactive) | GI50 (COLO 205): > 100 µM (inactive) | GI50 (SW-620): > 100 µM (inactive) | GI50 (A498): > 100 µM (inactive) | GI50 (786-0): > 100 µM (inactive) | GI50 (UACC-62): 21.1 µM (inactive) | GI50 (HOP-62): > 100 µM (inactive) | GI50 (HOP-92): > 100 µM (inactive) | GI50 (NCI/ADR-RES): > 100 µM (inactive) | GI50 (MOLT-4): > 100 µM (inactive) | GI50 (LOX IMVI): > 100 µM (inactive) | GI50 (OVCAR-4): > 100 µM (inactive) | GI50 (SF-295): > 100 µM (inactive) | GI50 (HCT-116): > 100 µM (inactive) | GI50 (CAKI-1): > 100 µM (inactive) | GI50 (Hs-578T): 90.6 µM (inactive) | GI50 (OVCAR-3): > 100 µM (inactive) | GI50 (SK-MEL-28): > 100 µM (inactive) | GI50 (SN12C): > 100 µM (inactive) | GI50 (NCI-H226): > 100 µM (inactive) | GI50 (MCF7): > 100 µM (inactive) | GI50 (M14): > 100 µM (inactive) | GI50 (MDA-N): > 100 µM (inactive) | GI50 (SNB-75): > 100 µM (inactive) | GI50 (SNB-19): > 100 µM (inactive) | GI50 (KM12): > 100 µM (inactive) | GI50 (SF-268): > 100 µM (inactive) | GI50 (A549): > 100 µM (inactive)
